# Measurements as given in patent US11213030B2, “4-(3,4-dihydronaphth-1-yl or 2H-chromen-4-yl)-5-hydroxy-2H-pyradizin-3-ones as herbicides” (FMC Corporation, priority 2017, dated 2022).
# Assays:
# Format in all cases: in vivo
# [1] = system: barnyardgrass (Echinochloa crus-galli); assay: Test B flooded paddy test, barnyardgrass; conditions: Flood, 250 g ai/ha applied to paddy water, 2-leaf stage, 13 to 15 d; scale of 0 to 100 where 0 is no effect and 100 is complete control
# Experimental: (§1) Plant species in the flooded paddy test selected from rice (Oryza sativa), sedge, umbrella (small-flower umbrella sedge, Cyperus difformis), ducksalad (Heteranthera limosa), and barnyardgrass (Echinochloa crus-galli) were grown to the 2-leaf stage for testing. At the time of treatment, test pots were flooded to 3 cm above the soil surface, treated by application of test compounds directly to the paddy water, and then maintained at that water depth for the duration of the test. Treated plants and controls were maintained in a greenhouse for 13 to 15 d, after which time all species were compared to controls and visually evaluated. Plant response ratings, summarized in Table B, are based on a scale of 0 to 100 where 0 is no effect and 100 is complete control. A dash (-) response means no test result.
# [2] = system: pigweed (Amaranthus retroflexus); assay: Test A preemergence, pigweed; conditions: 0 to 100 scale
# From the text: (§2) Seeds of plant species selected from barnyardgrass (Echinochloa crus-galli), kochia (Kochia scoparia), ragweed (common ragweed, Ambrosia elatior), ryegrass, It. (Italian ryegrass, Lolium multiflorum), foxtail, green (green foxtail, Setaria viridis), and pigweed (Amaranthus retroflexus) were planted into a blend of loam soil and sand and treated preemergence with a directed soil spray using test chemicals formulated in a non-phytotoxic solvent mixture which included a surfactant. At the same time, plants selected from these weed species and also wheat (Triticum aestivum), corn (Zea mays), blackgrass (Alopecurus myosuroides), and galium (catchweed bedstraw, Galium aparine) were planted in pots containing the same blend of loam soil and sand and treated with postemergence applications of test chemicals formulated in the same manner. Plants ranged in height from 2 to 10 cm and were in the one- to two-leaf stage for the postemergence treatment. Treated plants and untreated controls were maintained in a greenhouse for approximately 10 d, after which time all treated plants were compared to untreated controls and visually evaluated for injury. Plant response ratings, summarized in Table A, are based on a 0 to 100 scale where 0 is no effect and 100 is complete control. A dash (-) response means no test result.
# [3] = system: pigweed (Amaranthus retroflexus); assay: Test A postemergence, pigweed; conditions: 0 to 100 scale
# From the text: as §2
# corn (Zea mays) = assay: Test A postemergence, corn; conditions: 0 to 100 scale
# From the text: as §2
# [4] = system: sedge, umbrella (small-flower umbrella sedge, Cyperus difformis); assay: Test B flooded paddy test, umbrella sedge; conditions: Flood, 250 g ai/ha applied to paddy water, 2-leaf stage, 13 to 15 d; scale of 0 to 100 where 0 is no effect and 100 is complete control
# Experimental: as §1
# [5] = system: ryegrass, It. (Italian ryegrass, Lolium multiflorum); assay: Test A preemergence, Italian ryegrass; conditions: 0 to 100 scale
# From the text: as §2
# [6] = system: foxtail, green (green foxtail, Setaria viridis); assay: Test A preemergence, green foxtail; conditions: 0 to 100 scale
# From the text: as §2
# [7] = system: ragweed (common ragweed, Ambrosia elatior); assay: Test A preemergence, ragweed; conditions: 0 to 100 scale
# From the text: as §2
# rice (Oryza sativa) = assay: Test B flooded paddy test, rice; conditions: Flood, 250 g ai/ha applied to paddy water, 2-leaf stage, 13 to 15 d; scale of 0 to 100 where 0 is no effect and 100 is complete control
# Experimental: as §1
# kochia (Kochia scoparia) [8] = assay: Test A preemergence, kochia; conditions: 0 to 100 scale
# From the text: as §2
# [9] = system: ragweed (common ragweed, Ambrosia elatior); assay: Test A postemergence, ragweed; conditions: 0 to 100 scale
# From the text: as §2
# [10] = system: wheat (Triticum aestivum); assay: Test A postemergence, wheat; conditions: 0 to 100 scale
# From the text: as §2
# [11] = system: ducksalad (Heteranthera limosa); assay: Test B flooded paddy test, ducksalad; conditions: Flood, 250 g ai/ha applied to paddy water, 2-leaf stage, 13 to 15 d; scale of 0 to 100 where 0 is no effect and 100 is complete control
# Experimental: as §1
# [12] = system: barnyardgrass (Echinochloa crus-galli); assay: Test A preemergence, barnyardgrass; conditions: 0 to 100 scale
# From the text: as §2
# [13] = system: blackgrass (Alopecurus myosuroides); assay: Test A postemergence, blackgrass; conditions: 0 to 100 scale
# From the text: as §2
# [14] = system: galium (catchweed bedstraw, Galium aparine); assay: Test A postemergence, galium; conditions: 0 to 100 scale
# From the text: as §2
# [15] = system: ryegrass, It. (Italian ryegrass, Lolium multiflorum); assay: Test A postemergence, Italian ryegrass; conditions: 0 to 100 scale; for Plant response rating, Ryegrass, Italian: 500 g ai/ha
# From the text: as §2
# kochia (Kochia scoparia) [16] = assay: Test A postemergence, kochia; conditions: 0 to 100 scale
# From the text: as §2
# [17] = system: barnyardgrass (Echinochloa crus-galli); assay: Test A postemergence, barnyardgrass; conditions: 0 to 100 scale
# From the text: as §2
# [18] = system: foxtail, green (green foxtail, Setaria viridis); assay: Test A postemergence, green foxtail; conditions: 0 to 100 scale
# From the text: as §2
# Foxtail, Giant [19] = assay: Test A preemergence, giant foxtail; conditions: 0 to 100 scale
# Foxtail, Giant [20] = assay: Test A postemergence, giant foxtail; conditions: 0 to 100 scale
compound,measurement,setting,value
CC(=O)Oc1c(C)nn(C)c(=O)c1C1=C(C)CCc2ccccc21 [Compound 5],"Plant response rating, Barnyardgrass",[1],0
same,"Plant response rating, Pigweed",[2]; 31 g ai/ha,20
same,"Plant response rating, Pigweed",[2]; 125 g ai/ha,100
same,"Plant response rating, Pigweed",[3]; 31 g ai/ha,70
same,"Plant response rating, Pigweed",[3]; 125 g ai/ha,100
same,"Plant response rating, Corn",corn (Zea mays); 31 g ai/ha,20
same,"Plant response rating, Corn",corn (Zea mays); 125 g ai/ha,20
same,"Plant response rating, Sedge, Umbrella",[4],0
same,"Plant response rating, Ryegrass, It.",[5]; 31 g ai/ha,40
same,"Plant response rating, Ryegrass, It.",[5]; 125 g ai/ha,70
same,"Plant response rating, Foxtail, Green",[6]; 31 g ai/ha,0
same,"Plant response rating, Foxtail, Green",[6]; 125 g ai/ha,0
same,"Plant response rating, Ragweed",[7]; 31 g ai/ha,20
same,"Plant response rating, Ragweed",[7]; 125 g ai/ha,80
same,"Plant response rating, Rice",rice (Oryza sativa),0
same,"Plant response rating, Kochia",kochia (Kochia scoparia) [8]; 31 g ai/ha,0
same,"Plant response rating, Kochia",kochia (Kochia scoparia) [8]; 125 g ai/ha,10
same,"Plant response rating, Ragweed",[9]; 31 g ai/ha,30
same,"Plant response rating, Ragweed",[9]; 125 g ai/ha,80
same,"Plant response rating, Wheat",[10]; 31 g ai/ha,0
same,"Plant response rating, Wheat",[10]; 125 g ai/ha,0
same,"Plant response rating, Ducksalad",[11],0
same,"Plant response rating, Barnyardgrass",[12]; 31 g ai/ha,20
same,"Plant response rating, Barnyardgrass",[12]; 125 g ai/ha,0
same,"Plant response rating, Blackgrass",[13]; 31 g ai/ha,0
same,"Plant response rating, Blackgrass",[13]; 125 g ai/ha,30
same,"Plant response rating, Galium",[14]; 31 g ai/ha,90
same,"Plant response rating, Galium",[14]; 125 g ai/ha,90
same,"Plant response rating, Ryegrass, It.",[15]; 31 g ai/ha,70
same,"Plant response rating, Ryegrass, It.",[15]; 125 g ai/ha,80
same,"Plant response rating, Kochia",kochia (Kochia scoparia) [16]; 31 g ai/ha,70
same,"Plant response rating, Kochia",kochia (Kochia scoparia) [16]; 125 g ai/ha,80
same,"Plant response rating, Barnyardgrass",[17]; 31 g ai/ha,20
same,"Plant response rating, Barnyardgrass",[17]; 125 g ai/ha,30
same,"Plant response rating, Foxtail, Green",[18]; 31 g ai/ha,20
same,"Plant response rating, Foxtail, Green",[18]; 125 g ai/ha,40
COc1c(C)nn(C)c(=O)c1C1=CCC(C)(C)c2ccccc21 [Compound 6],"Plant response rating, Barnyardgrass",[1],0
same,"Plant response rating, Pigweed",[2]; 125 g ai/ha,0
same,"Plant response rating, Pigweed",[2]; 500 g ai/ha,0
same,"Plant response rating, Pigweed",[3]; 125 g ai/ha,0
same,"Plant response rating, Pigweed",[3]; 500 g ai/ha,0
same,"Plant response rating, Corn",corn (Zea mays); 125 g ai/ha,0
same,"Plant response rating, Corn",corn (Zea mays); 500 g ai/ha,0
same,"Plant response rating, Sedge, Umbrella",[4],0
same,"Plant response rating, Ryegrass, It.",[5]; 125 g ai/ha,0
same,"Plant response rating, Ryegrass, It.",[5]; 500 g ai/ha,0
same,"Plant response rating, Ragweed",[7]; 125 g ai/ha,0
same,"Plant response rating, Ragweed",[7]; 500 g ai/ha,0
same,"Plant response rating, Rice",rice (Oryza sativa),0
same,"Plant response rating, Kochia",kochia (Kochia scoparia) [8]; 125 g ai/ha,0
same,"Plant response rating, Kochia",kochia (Kochia scoparia) [8]; 500 g ai/ha,40
same,"Plant response rating, Ragweed",[9]; 125 g ai/ha,0
same,"Plant response rating, Ragweed",[9]; 500 g ai/ha,20
same,"Plant response rating, Wheat",[10]; 125 g ai/ha,0
same,"Plant response rating, Wheat",[10]; 500 g ai/ha,0
same,"Plant response rating, Ducksalad",[11],0
same,"Plant response rating, Foxtail, Giant","Foxtail, Giant [19]; 125 g ai/ha",0
same,"Plant response rating, Foxtail, Giant","Foxtail, Giant [19]; 500 g ai/ha",0
same,"Plant response rating, Barnyardgrass",[12]; 125 g ai/ha,0
same,"Plant response rating, Barnyardgrass",[12]; 500 g ai/ha,30
same,"Plant response rating, Blackgrass",[13]; 125 g ai/ha,0
same,"Plant response rating, Blackgrass",[13]; 500 g ai/ha,20
same,"Plant response rating, Galium",[14]; 125 g ai/ha,0
same,"Plant response rating, Galium",[14]; 500 g ai/ha,0
same,"Plant response rating, Ryegrass, Italian",[15],0
same,"Plant response rating, Kochia",kochia (Kochia scoparia) [16]; 125 g ai/ha,0
same,"Plant response rating, Kochia",kochia (Kochia scoparia) [16]; 500 g ai/ha,0
same,"Plant response rating, Barnyardgrass",[17]; 125 g ai/ha,0
same,"Plant response rating, Barnyardgrass",[17]; 500 g ai/ha,0
same,"Plant response rating, Foxtail, Giant","Foxtail, Giant [20]; 125 g ai/ha",0
same,"Plant response rating, Foxtail, Giant","Foxtail, Giant [20]; 500 g ai/ha",0
Cc1nn(C)c(=O)c(C2=CCC(C)(C)c3ccccc32)c1O [Compound 7],"Plant response rating, Barnyardgrass",[1],0
same,"Plant response rating, Pigweed",[2]; 125 g ai/ha,0
same,"Plant response rating, Pigweed",[2]; 500 g ai/ha,10
same,"Plant response rating, Pigweed",[3]; 125 g ai/ha,80
same,"Plant response rating, Pigweed",[3]; 500 g ai/ha,90
same,"Plant response rating, Corn",corn (Zea mays); 125 g ai/ha,0
same,"Plant response rating, Corn",corn (Zea mays); 500 g ai/ha,10
same,"Plant response rating, Sedge, Umbrella",[4],0
same,"Plant response rating, Ryegrass, It.",[5]; 125 g ai/ha,0
same,"Plant response rating, Ryegrass, It.",[5]; 500 g ai/ha,10
same,"Plant response rating, Ragweed",[7]; 125 g ai/ha,0
same,"Plant response rating, Ragweed",[7]; 500 g ai/ha,0
same,"Plant response rating, Rice",rice (Oryza sativa),0
same,"Plant response rating, Kochia",kochia (Kochia scoparia) [8]; 125 g ai/ha,0
same,"Plant response rating, Kochia",kochia (Kochia scoparia) [8]; 500 g ai/ha,0
same,"Plant response rating, Ragweed",[9]; 125 g ai/ha,0
same,"Plant response rating, Ragweed",[9]; 500 g ai/ha,70
same,"Plant response rating, Wheat",[10]; 125 g ai/ha,0
same,"Plant response rating, Wheat",[10]; 500 g ai/ha,0
same,"Plant response rating, Ducksalad",[11],0
same,"Plant response rating, Foxtail, Giant","Foxtail, Giant [19]; 125 g ai/ha",0
same,"Plant response rating, Foxtail, Giant","Foxtail, Giant [19]; 500 g ai/ha",0
same,"Plant response rating, Barnyardgrass",[12]; 125 g ai/ha,0
same,"Plant response rating, Barnyardgrass",[12]; 500 g ai/ha,0
same,"Plant response rating, Blackgrass",[13]; 125 g ai/ha,10
same,"Plant response rating, Blackgrass",[13]; 500 g ai/ha,10
same,"Plant response rating, Galium",[14]; 125 g ai/ha,50
same,"Plant response rating, Galium",[14]; 500 g ai/ha,70
same,"Plant response rating, Ryegrass, It.",[15]; 125 g ai/ha,30
same,"Plant response rating, Ryegrass, Italian",[15],80
same,"Plant response rating, Kochia",kochia (Kochia scoparia) [16]; 125 g ai/ha,30
same,"Plant response rating, Kochia",kochia (Kochia scoparia) [16]; 500 g ai/ha,70
same,"Plant response rating, Barnyardgrass",[17]; 125 g ai/ha,10
same,"Plant response rating, Barnyardgrass",[17]; 500 g ai/ha,30
same,"Plant response rating, Foxtail, Giant","Foxtail, Giant [20]; 125 g ai/ha",0
same,"Plant response rating, Foxtail, Giant","Foxtail, Giant [20]; 500 g ai/ha",10
